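1) Cells in 96-well plates. 2) Compound, 48 h, 5 concentrations. 3) Linear interpolation between surrounding doses. 4) Unreached endpoint = highest concentration. GI50 = concentration required for 50% inhibition of growth.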 Calls of active or inactive are those of the source. Cut-off read from the data, not from the text of the source: active = GI50 up to about 1.1 µM and inactive = higher.
Key:
Assay in all cases: DTP human tumour cell line panel, 48 h
[1] = system: UO-31
[2] = system: SN12C
[3] = system: HOP-92
[4] = system: NCI-H226
[5] = system: HCT-15
[6] = system: OVCAR-3
[7] = system: MDA-MB-231
[8] = system: NCI/ADR-RES
[9] = system: MDA-MB-435
[10] = system: DU-145
[11] = system: Hs-578T
[12] = system: UACC-257
[13] = system: OVCAR-8
[14] = system: A498
[15] = system: SW-620
[16] = system: HT-29
[17] = system: SK-OV-3
[18] = system: SK-MEL-2
[19] = system: KM12
[20] = system: PC-3

Compound	GI50 [1]	GI50 [2]	GI50 [3]	GI50 [4]	GI50 [5] [µM]	GI50 [6]	GI50 [7]	GI50 [8]	GI50 [9]	GI50 [10]	GI50 [11]	GI50 [12]	GI50 [13]	GI50 [14]	GI50 [15]	GI50 [16]	GI50 [17]	GI50 [18]	GI50 [19]	GI50 [20]
CN(C)CCNc1ccc2c(=O)n(CCN(C)C)c(=O)n3c4ccc(N)cc4c(=O)c1c23	0.0382 µM (active)	< 0.01 µM (active)	0.0807 µM (active)	< 0.0215 µM (active)	0.0211	0.0995 µM (active)	0.187 µM (active)	0.259 µM (active)	0.101 µM (active)	0.0665 µM (active)	0.178 µM (active)	0.258 µM (active)	< 0.01 µM (active)	0.408 µM (active)	< 0.01 µM (active)	< 0.01 µM (active)	0.261 µM (active)	0.117 µM (active)	0.0644 µM (active)	0.0608 µM (active)
O=C1NC(=O)C(Cc2ccccc2)(c2cccnc2)N1 (stereo not given)	> 100 µM (inactive)	> 100 µM (inactive)	> 100 µM (inactive)	> 100 µM (inactive)	> 100	> 100 µM (inactive)	> 100 µM (inactive)	> 100 µM (inactive)	> 100 µM (inactive)	> 100 µM (inactive)	> 100 µM (inactive)	> 100 µM (inactive)	> 100 µM (inactive)	> 100 µM (inactive)	> 100 µM (inactive)	> 100 µM (inactive)	> 100 µM (inactive)	> 100 µM (inactive)	> 100 µM (inactive)	> 100 µM (inactive)
CCN(Cc1cc(Cl)cc(C)c1O)Cc1c(O)ccc2ccccc12	16.2 µM (inactive)	18.2 µM (inactive)	11.2 µM (inactive)	19.1 µM (inactive)	14.6	15 µM (inactive)	18.4 µM (inactive)	14.8 µM (inactive)	15.8 µM (inactive)	20.2 µM (inactive)	15.9 µM (inactive)	15.8 µM (inactive)	17.7 µM (inactive)	18.7 µM (inactive)	25.4 µM (inactive)	12.9 µM (inactive)	15.2 µM (inactive)	16.4 µM (inactive)	17.3 µM (inactive)	15.5 µM (inactive)
NS(=O)(=O)c1ccc(Nc2c3ccccc3nc3c(C(=O)NCCO)cccc23)cc1	0.181 µM (active)	0.176 µM (active)	0.148 µM (active)	0.113 µM (active)	0.169	0.12 µM (active)	0.184 µM (active)	0.408 µM (active)	0.203 µM (active)	0.165 µM (active)	0.188 µM (active)	0.17 µM (active)	0.173 µM (active)	0.105 µM (active)	0.118 µM (active)	0.16 µM (active)	0.201 µM (active)	0.186 µM (active)	0.137 µM (active)	0.177 µM (active)
CCOC(=O)c1nc2ccc(C(F)(F)F)cc2nc1Oc1cc(OC)cc(OC)c1	> 100 µM (inactive)	> 100 µM (inactive)	40.1 µM (inactive)	67.8 µM (inactive)	> 100	> 100 µM (inactive)	> 100 µM (inactive)	> 100 µM (inactive)	77.6 µM (inactive)	87.3 µM (inactive)	17 µM (inactive)	> 100 µM (inactive)	> 100 µM (inactive)	> 100 µM (inactive)	> 100 µM (inactive)	> 100 µM (inactive)	> 100 µM (inactive)	> 100 µM (inactive)	36.8 µM (inactive)	> 100 µM (inactive)
C=C1CCOC2(C(O)C(C)(O)CO)NC(=O)C1(O)NC2=O (stereo not given)	> 100 µM (inactive)	> 100 µM (inactive)	> 100 µM (inactive)	> 100 µM (inactive)	> 100	> 100 µM (inactive)	> 100 µM (inactive)	> 100 µM (inactive)	> 100 µM (inactive)	> 100 µM (inactive)	> 100 µM (inactive)	> 100 µM (inactive)	> 100 µM (inactive)	> 100 µM (inactive)	> 100 µM (inactive)	> 100 µM (inactive)	> 100 µM (inactive)	> 100 µM (inactive)	> 100 µM (inactive)	> 100 µM (inactive)
COc1ccc(/C=C2\CN(C)CC3C2=NC(=S)NC3c2ccc(OC)cc2)cc1 (stereo not given)	4.95 µM (inactive)	6.81 µM (inactive)	3.21 µM (inactive)	41.5 µM (inactive)	3.46	1.98 µM (inactive)	13.3 µM (inactive)	2.55 µM (inactive)	1.33 µM (inactive)	4.68 µM (inactive)	52.7 µM (inactive)	4.82 µM (inactive)	7.8 µM (inactive)	3.27 µM (inactive)	6.05 µM (inactive)	3.51 µM (inactive)	5.66 µM (inactive)	13.9 µM (inactive)	2.97 µM (inactive)	6.21 µM (inactive)
COC(=O)[C@]1(NC(=O)c2ccccc2)C[C@H]1C=O	> 100 µM (inactive)	> 100 µM (inactive)	> 100 µM (inactive)	46.7 µM (inactive)	> 90.6	> 100 µM (inactive)	> 100 µM (inactive)	> 58.6 µM (inactive)	> 100 µM (inactive)	> 100 µM (inactive)	> 55.5 µM (inactive)	> 100 µM (inactive)	> 100 µM (inactive)	> 71.8 µM (inactive)	> 100 µM (inactive)	> 100 µM (inactive)	93.8 µM (inactive)	> 100 µM (inactive)	> 61.5 µM (inactive)	> 100 µM (inactive)
CCOC(=O)C#Cc1ccc([N+](=O)[O-])cc1	1.77 µM (inactive)	1.69 µM (inactive)	1.8 µM (inactive)	2.68 µM (inactive)	1.82	1.71 µM (inactive)	2.28 µM (inactive)	4.18 µM (inactive)	3.44 µM (inactive)	1.74 µM (inactive)	4.18 µM (inactive)	3.32 µM (inactive)	2.37 µM (inactive)	17.5 µM (inactive)	2.28 µM (inactive)	1.53 µM (inactive)	12.7 µM (inactive)	3.24 µM (inactive)	1.82 µM (inactive)	2.72 µM (inactive)
CCOC(=O)/C=C(/C(=O)OCC)n1ccc(=O)n(Cc2cn(COCCOC(C)=O)nn2)c1=O	18 µM (inactive)	34.8 µM (inactive)	1.53 µM (inactive)	33.7 µM (inactive)	20.3	17.8 µM (inactive)	28.8 µM (inactive)	20.3 µM (inactive)	17.9 µM (inactive)	40.2 µM (inactive)	26.4 µM (inactive)	19.3 µM (inactive)	16.4 µM (inactive)	20.5 µM (inactive)	7.05 µM (inactive)	18.1 µM (inactive)	> 100 µM (inactive)	25.2 µM (inactive)	15.5 µM (inactive)	35.4 µM (inactive)
CCOC(=O)CN1CCNCCN(CC(=O)OCC)CCNCC1	52.6 µM (inactive)	> 100 µM (inactive)	> 100 µM (inactive)	> 100 µM (inactive)	> 100	> 100 µM (inactive)	> 100 µM (inactive)	> 100 µM (inactive)	> 100 µM (inactive)	> 100 µM (inactive)	> 100 µM (inactive)	> 100 µM (inactive)	> 100 µM (inactive)	> 100 µM (inactive)	> 10 µM (inactive)	55.3 µM (inactive)	> 100 µM (inactive)	> 100 µM (inactive)	> 100 µM (inactive)	> 100 µM (inactive)
C[N+](C)(C)C(C1=CCCC1=O)c1ccccc1 (stereo not given)	> 100 µM (inactive)	20.3 µM (inactive)	26.4 µM (inactive)	36.6 µM (inactive)	20.2	47.1 µM (inactive)	29 µM (inactive)	33.8 µM (inactive)	26.2 µM (inactive)	57.5 µM (inactive)	33.4 µM (inactive)	22.8 µM (inactive)	25 µM (inactive)	> 100 µM (inactive)	21.5 µM (inactive)	23.5 µM (inactive)	> 100 µM (inactive)	84.9 µM (inactive)	19 µM (inactive)	35.5 µM (inactive)
CCCCCCC(C)c1ccc2c(c1)C(=O)c1nc3ccncc3c(=O)n1-2 (stereo not given)	2.17 µM (inactive)	4.33 µM (inactive)	78.3 µM (inactive)	4.16 µM (inactive)	1.3	1.45 µM (inactive)	2.54 µM (inactive)	5.68 µM (inactive)	0.352 µM (active)	14.6 µM (inactive)	9.62 µM (inactive)	2.84 µM (inactive)	6.87 µM (inactive)	4.32 µM (inactive)	2.61 µM (inactive)	2.1 µM (inactive)	5.9 µM (inactive)	3.61 µM (inactive)	1.79 µM (inactive)	3.54 µM (inactive)
COC(=O)CC[C@@H](C)[C@H]1CC[C@H]2[C@@H]3CC[C@@H]4C[C@H](O)CC[C@]4(C)[C@H]3CC[C@]12C	19 µM (inactive)	18.6 µM (inactive)	13.8 µM (inactive)	20.3 µM (inactive)	17.1	18.1 µM (inactive)	17.8 µM (inactive)	19 µM (inactive)	16.7 µM (inactive)	17.7 µM (inactive)	23.1 µM (inactive)	14.8 µM (inactive)	19 µM (inactive)	20.5 µM (inactive)	29.6 µM (inactive)	16.6 µM (inactive)	20.8 µM (inactive)	18.7 µM (inactive)	17.5 µM (inactive)	17.3 µM (inactive)
